This note sets out measurements from ChEMBL document CHEMBL5729193, “Aromatic vinyl or aromatic ethyl derivative, preparation method therefor, intermediate, pharmaceutical composition, and application” (2022).

The target of this assay is Programmed cell death protein 1/Programmed cell death 1 ligand 1 (Homo sapiens, UniProt Q15116+Q9NZQ7). Briefly: Homogenouse Time-Resolved Fluorescence (HTRF) Binding Assay: Experimental Procedure1. The compound was formulated to 10 concentrations with a three-fold concentration gradient with 100% DMSO.2. The solution of the compound in DMSO was added to Dilute Buffer, and mixed evenly and then transferred to a 96-well plate.3. PD-L1 was diluted with Dilute Buffer and added to the 96-well plate above.4. PD-1 was diluted with Dilute Buffer, then added to the 96-well plate above and incubated at room temperature for 30 minutes.5. One portion of anti-tag1-Eu and one portion of anti-tag2-XL665 were added to Detection Buffer, mixed evenly and transferred to the 96-well plate above.6. The mixed solution in the 96-well plate were incubated at room temperature for 1 to 24 hours.7. HTRF values were read by Envision. It is filed as protein-complex assay. For orientation: In TR-FRET formats the signal depends on donor and acceptor labels being close together.
Programmed cell death protein 1/Programmed cell death 1 ligand 1, sequence (Q15116 whole entry): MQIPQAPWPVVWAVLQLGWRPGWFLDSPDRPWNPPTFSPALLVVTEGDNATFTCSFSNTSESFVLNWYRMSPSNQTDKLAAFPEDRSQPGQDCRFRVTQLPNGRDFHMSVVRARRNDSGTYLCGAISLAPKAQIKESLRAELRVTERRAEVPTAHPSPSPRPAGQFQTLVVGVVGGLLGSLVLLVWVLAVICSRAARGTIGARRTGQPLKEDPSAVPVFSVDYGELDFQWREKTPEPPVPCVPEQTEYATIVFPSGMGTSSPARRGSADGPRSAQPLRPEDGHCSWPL
Programmed cell death protein 1/Programmed cell death 1 ligand 1, sequence (Q9NZQ7 whole entry): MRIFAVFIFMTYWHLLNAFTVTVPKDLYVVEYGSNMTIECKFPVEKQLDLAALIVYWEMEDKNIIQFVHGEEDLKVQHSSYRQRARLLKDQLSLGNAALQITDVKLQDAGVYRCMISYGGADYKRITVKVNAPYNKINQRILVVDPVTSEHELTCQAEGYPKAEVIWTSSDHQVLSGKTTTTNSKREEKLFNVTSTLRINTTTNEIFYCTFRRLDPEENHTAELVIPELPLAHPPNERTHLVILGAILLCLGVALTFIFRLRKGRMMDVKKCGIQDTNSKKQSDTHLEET

In turn, `Cc1c(/C=C/c2cc(C(C)NCC(=O)O)ccc2C(F)(F)F)cccc1-c1ccccc1` (configuration not stated) had an IC50 of 0.024 µM.

In turn, `COc1ccc(-c2cccc(/C=C/c3cc(CNC(C)(CO)C(=O)O)ccc3C)c2C)cc1` (configuration not stated) displayed an IC50 of 3.1 µM.

In the case of `Cc1ccc(CNC(C)(CO)C(=O)O)cc1/C=C/c1cccc(-c2ccc(F)cc2)c1C` (configuration not stated), the IC50 is 1.4 µM.

As for `Cc1c(CCc2cc(CNC(CO)C(=O)O)ccc2C(F)(F)F)cccc1-c1ccccc1` (configuration not stated), the IC50 was found to be 0.046 µM.

On to `Cc1ccc(CNC(C)(CO)C(=O)O)cc1/C=C/c1cccc(-c2cccc(F)c2)c1C` (configuration not stated), for which the IC50 came to 0.057 µM.

For the compound `Cc1c(/C=C/c2cc(CNC(CO)C(=O)O)ccc2C(F)(F)F)cccc1-c1ccccc1F` (configuration not stated), the half-maximal inhibitory concentration (IC50) is 0.013 µM.

In turn, `Cc1c(/C=C/c2cc(CNC(C)(CO)C(=O)O)ccc2C(F)(F)F)cccc1-c1ccccc1F` (configuration not stated) gave an IC50 of 0.02 µM.

Compound `Cc1c(CCc2cc(CNC(C)(CO)C(=O)O)ccc2C(F)(F)F)cccc1-c1ccccc1` (configuration not stated) had an IC50 of 0.085 µM.

As for `Cc1c(/C=C/c2cc(CNC(CO)C(=O)O)ccc2C(F)(F)F)cccc1-c1ccc2c(c1)OCCO2` (configuration not stated), the IC50 was found to be 0.014 µM.

On to `Cc1c(/C=C/c2cc(CNC(C)(CO)C(=O)O)ccc2C(F)(F)F)cccc1-c1ccc(F)cc1` (configuration not stated), for which the IC50 was found to be 0.32 µM.

With `Cc1c(/C=C/c2cc(CN[C@@](C)(CO)C(=O)O)ccc2C(F)(F)F)cccc1-c1cnccn1`, the IC50 was determined as 0.54 µM.

On to `Cc1c(CCc2cc(CNC(C)C(=O)O)ccc2C(F)(F)F)cccc1-c1ccccc1` (configuration not stated), for which the IC50 was 0.044 µM.

`Cc1c(/C=C/c2cc(CN[C@@](C)(CO)C(=O)O)ccc2C(F)(F)F)cccc1-c1ccc2cn(C)nc2c1`: the IC50 stood at 0.88 µM.

With `Cc1c(/C=C/c2cc(CN[C@@](C)(CO)C(=O)O)ccc2C(F)(F)F)cccc1-c1ccccn1`, the 50% inhibitory concentration (IC50) stood at 2.2 µM.

`Cc1c(/C=C/c2cc(CN[C@@](C)(CO)C(=O)O)ccc2C(F)(F)F)cccc1-c1cccnc1` gave a half-maximal inhibitory concentration (IC50) of 0.58 µM.

Compound `Cc1c(/C=C/c2cc(CN[C@@](C)(CO)C(=O)O)ccc2C(F)(F)F)cccc1-c1ccc2ncoc2c1` registered a half-maximal inhibitory concentration (IC50) of 1.1 µM.

Compound `Cc1c(/C=C/c2cc(CNC(C)(CO)C(=O)O)ccc2C(F)(F)F)cccc1-c1cccc(F)c1` (configuration not stated) gave an IC50 of 0.046 µM.

A word on the IC50: it is the concentration that inhibits the measured activity by half.
